Measurements: PubChem BioAssay AID330 (DTP/NCI, 2004)
Where “and” joins values, the source holds several entries; their conditions need not be identical. Equal values may be shown once. Inconclusive results and toxic doses are left out.

Test system: P388 leukemia ip, CD2F1 mice, survival T/C
Test: NCI In Vivo Anticancer Drug Screen. Data for tumor model P388 Leukemia (intraperitoneal) in CD2F1 (CDF1) mice
Settings: endpoint: median survival time, higher = longer survival
Method in brief: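 Mice carrying the transplanted tumor received test compound or vehicle. Survival was recorded in each group, and the value is the treated-group measurement divided by that of the vehicle-treated control group.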

[1] = dose: 60.0 mg/kg/injection, schedule: Q01DX005 (ip), vehicle: Klucel (hydroxypropylcellulose) (HPC)
[2] = dose: 120.0 mg/kg/injection, schedule: Q01DX005 (ip), vehicle: Klucel (hydroxypropylcellulose) (HPC)
[3] = dose: 100.0 mg/kg/injection, schedule: Q04DX003 (ip), vehicle: saline with Tween-80
[4] = dose: 200.0 mg/kg/injection, schedule: Q04DX003 (ip), vehicle: saline with Tween-80
[5] = dose: 400.0 mg/kg/injection, schedule: Q04DX003 (ip), vehicle: saline with Tween-80
[6] = dose: 50.0 mg/kg/injection, schedule: Q01DX005 (ip), vehicle: saline with Tween-80
[7] = dose: 100.0 mg/kg/injection, schedule: Q01DX005 (ip), vehicle: saline with Tween-80
[8] = dose: 200.0 mg/kg/injection, schedule: Q01DX005 (ip), vehicle: saline with Tween-80
[9] = dose: 100.0 mg/kg/injection, schedule: Q01DX009 (ip), vehicle: saline with Tween-80
[10] = dose: 200.0 mg/kg/injection, schedule: Q01DX009 (ip), vehicle: saline with Tween-80
[11] = dose: 50.0 mg/kg/injection, schedule: Q01DX009 (ip), vehicle: saline with Tween-80

With O=C(O)CC1(C(=O)O)CCC(OCc2ccccc2)CC1 (stereo not drawn) as the molecule, how does the T/C (dose: 50.0 mg/kg/injection, schedule: Q01DX009 (ip), vehicle: saline) read?
Its T/C is 102 % of control.

And the T/C (dose: 100.0 mg/kg/injection, schedule: Q01DX009 (ip), vehicle: saline)?
Its T/C is 92 % of control.

What does the source list for C=C1N=NN(c2ccc([N+](=O)[O-])cc2)C1N1CCOCC1 (stereo not drawn)?
T/C [1]: 100 % of control; T/C [2]: 101 % of control; T/C (dose: 240.0 mg/kg/injection, schedule: Q01DX005 (ip), vehicle: Klucel (hydroxypropylcellulose) (HPC)): 105 % of control

With Cc1ccc(NS(=O)(=O)c2ccc3ccccc3c2)c(C)c1 as the molecule, how does the T/C [3] read?
Its T/C is 100 % of control.

And the T/C [4]?
Its T/C is 100 % of control.

And the T/C [5]?
Its T/C is 104 % of control.

What does the source list for CCOc1ccc(N2CC(=O)N3CCCN3C(=O)C2)cc1?
T/C (dose: 6.25 mg/kg/injection, schedule: Q01DX005 (ip), vehicle: saline with Tween-80): 96 % of control; T/C (dose: 12.5 mg/kg/injection, schedule: Q01DX005 (ip), vehicle: saline with Tween-80): 102 % of control; T/C (dose: 25.0 mg/kg/injection, schedule: Q01DX005 (ip), vehicle: saline with Tween-80): 100 % of control

Which T/C (dose: 25.0 mg/kg/injection, schedule: Q01DX005 (ip), vehicle: saline) does the source give for N#CC1(OC2OC(CO)C(O)C(O)C2O)C=CC(OS(=O)(=O)O)C1 (stereo not drawn) here?
Its T/C is 103 % of control.

And the T/C (dose: 50.0 mg/kg/injection, schedule: Q01DX005 (ip), vehicle: saline)?
Its T/C is 100 % of control.

And the T/C (dose: 100.0 mg/kg/injection, schedule: Q01DX005 (ip), vehicle: saline)?
The T/C was 116 % of control.

What about the T/C (dose: 200.0 mg/kg/injection, schedule: Q01DX005 (ip), vehicle: saline) of the same molecule?
The T/C was 97 % of control.

COc1cc(COC(=O)Nc2ccccc2F)cc(OC)c1OC was tested. Which T/C [6] did it give?
The T/C was 93 % of control.

What about the T/C [7] of the same molecule?
Its T/C is 101 % of control.

And the T/C [8]?
Its T/C is 92 % of control.

CCCCCCCC/C=C\CCCCCCCC(=O)OCCCCCCCCCCCCCCCCC was tested. Which T/C [9] did it give?
The T/C was 100 % of control.

What about the T/C [10] of the same molecule?
The T/C was 100 % of control.

What about the T/C (dose: 400.0 mg/kg/injection, schedule: Q01DX009 (ip), vehicle: saline with Tween-80) of the same molecule?
Its T/C is 96 % of control.

C=C1CCC2C(C)(CCC(O)C2(C)C(=O)O)C1CCc1ccoc1 (stereo not drawn) was tested. Which T/C (dose: 20.0 mg/kg/injection, schedule: Q01DX005 (ip), vehicle: other) did it give?
Its T/C is 95 % of control.

What about the T/C (dose: 40.0 mg/kg/injection, schedule: Q01DX005 (ip), vehicle: other) of the same molecule?
Its T/C is 100 % of control.

What about the T/C (dose: 80.0 mg/kg/injection, schedule: Q01DX005 (ip), vehicle: other) of the same molecule?
The T/C was 103 % of control.

What about the T/C (dose: 160.0 mg/kg/injection, schedule: Q01DX005 (ip), vehicle: other) of the same molecule?
The T/C was 95 % of control.

Which T/C (dose: 1.56 mg/kg/injection, schedule: Q01DX009 (ip), vehicle: saline) does the source give for Cc1cccc(N(CCOS(C)(=O)=O)CCOS(C)(=O)=O)c1 here?
The T/C was 95 % of control.

What about the T/C (dose: 3.12 mg/kg/injection, schedule: Q01DX009 (ip), vehicle: saline) of the same molecule?
The T/C was 98 % of control.

What about the T/C (dose: 6.25 mg/kg/injection, schedule: Q01DX009 (ip), vehicle: saline) of the same molecule?
Its T/C is 100 % of control.

And the T/C (dose: 12.5 mg/kg/injection, schedule: Q01DX009 (ip), vehicle: saline with Tween-80)?
The T/C was 87 % of control.

What about the T/C (dose: 25.0 mg/kg/injection, schedule: Q01DX009 (ip), vehicle: saline) of the same molecule?
The T/C was 102 % of control.

How did the T/C [11] turn out when Cc1nc(-c2ccccc2-n2cccc2)no1 was run?
Its T/C is 104 % of control.

And the T/C [9]?
Its T/C is 102 % of control.

With Cc1cc2c(cc1C)NC1=C(N2)OC(c2ccc3c(c2)OCO3)C1=O (stereo not drawn) as the molecule, how does the T/C (dose: 30.0 mg/kg/injection, schedule: Q01DX005 (ip), vehicle: Klucel (hydroxypropylcellulose) (HPC)) read?
Its T/C is 88 % of control.

What about the T/C [1] of the same molecule?
Its T/C is 101 % of control and 97 % of control.

What about the T/C [2] of the same molecule?
The T/C was 100 % of control and 104 % of control.

With O=C(CCCCC(=O)Nc1ccc2c(=O)c3ccccc3[nH]c2c1)Nc1ccc2c(=O)c3ccccc3[nH]c2c1 as the molecule, how does the T/C [6] read?
Its T/C is 99 % of control.

What about the T/C [7] of the same molecule?
Its T/C is 104 % of control.

And the T/C [8]?
The T/C was 104 % of control.

What does the source list for Cc1c(Cl)c(C)c(Cl)c(CCl)c1Cl?
T/C (dose: 18.75 mg/kg/injection, schedule: Q04DX003 (ip), vehicle: saline sonified): 95 % of control; T/C (dose: 37.5 mg/kg/injection, schedule: Q04DX003 (ip), vehicle: saline sonified): 109 % of control; T/C (dose: 75.0 mg/kg/injection, schedule: Q04DX003 (ip), vehicle: saline sonified): 109 % of control

What does the source list for CC(=O)CC(=O)c1c(-c2ccccc2)[nH]c2ccccc12?
T/C (dose: 25.0 mg/kg/injection, schedule: Q04DX003 (ip), vehicle: saline + alcohol): 100 % of control; T/C (dose: 50.0 mg/kg/injection, schedule: Q04DX003 (ip), vehicle: saline + alcohol): 102 % of control; T/C (dose: 100.0 mg/kg/injection, schedule: Q04DX003 (ip), vehicle: saline + alcohol): 107 % of control and 96 % of control

S=c1nc[nH]c2c1ncn2C1CCCCO1 (stereo not drawn) was tested. Which T/C (dose: 15.0 mg/kg/injection, schedule: Q01DX009 (ip), vehicle: saline with Tween-80) did it give?
Its T/C is 86 % of control.

And the T/C (dose: 30.0 mg/kg/injection, schedule: Q01DX009 (ip), vehicle: saline with Tween-80)?
The T/C was 104 % of control.

And the T/C (dose: 60.0 mg/kg/injection, schedule: Q01DX009 (ip), vehicle: saline with Tween-80)?
The T/C was 113 % of control.

What about the T/C (dose: 62.5 mg/kg/injection, schedule: Q01DX009 (ip), vehicle: Klucel (hydroxypropylcellulose) (HPC)) of the same molecule?
Its T/C is 86 % of control.

And the T/C [9]?
The T/C was 118 % of control.

What about the T/C [3] of the same molecule?
The T/C was 91 % of control.

What about the T/C (dose: 120.0 mg/kg/injection, schedule: Q01DX009 (ip), vehicle: saline with Tween-80) of the same molecule?
The T/C was 108 % of control.

And the T/C (dose: 125.0 mg/kg/injection, schedule: Q01DX009 (ip), vehicle: Klucel (hydroxypropylcellulose) (HPC))?
The T/C was 109 % of control.

And the T/C [10]?
Its T/C is 104 % of control.

What about the T/C [4] of the same molecule?
The T/C was 108 % of control.

And the T/C (dose: 250.0 mg/kg/injection, schedule: Q01DX009 (ip), vehicle: Klucel (hydroxypropylcellulose) (HPC))?
Its T/C is 90 % of control.

And the T/C [5]?
Its T/C is 112 % of control.

Which results are given for CN(C)C(=Nc1ccccc1)OC1=C/C(=C2/C=C(OC(=Nc3ccccc3)N(C)C)N=C2OC(=Nc2ccccc2)N(C)C)C(OC(=Nc2ccccc2)N(C)C)=N1?
T/C (dose: 100.0 mg/kg/injection, schedule: Q01DX001 (ip), vehicle: Klucel (hydroxypropylcellulose) (HPC)): 106 % of control; T/C (dose: 200.0 mg/kg/injection, schedule: Q01DX001 (ip), vehicle: Klucel (hydroxypropylcellulose) (HPC)): 106 % of control; T/C (dose: 400.0 mg/kg/injection, schedule: Q01DX001 (ip), vehicle: Klucel (hydroxypropylcellulose) (HPC)): 104 % of control

O=[N+]([O-])c1cc2[nH]cnc2c([N+](=O)[O-])c1NCCO was tested. Which T/C [11] did it give?
Its T/C is 110 % of control.

And the T/C [9]?
The T/C was 108 % of control.

What about the T/C [10] of the same molecule?
Its T/C is 94 % of control.

For COc1cc2c(c(OC)c1OC)-c1ccc(OC)c(=O)cc1CC=C2, which T/C (dose: 1.25 mg/kg/injection, schedule: Q01DX009 (ip), vehicle: Klucel (hydroxypropylcellulose) (HPC)) is on record?
The T/C was 124 % of control.

And the T/C (dose: 2.5 mg/kg/injection, schedule: Q01DX009 (ip), vehicle: Klucel (hydroxypropylcellulose) (HPC))?
Its T/C is 119 % of control and 120 % of control.

And the T/C (dose: 5.0 mg/kg/injection, schedule: Q01DX009 (ip), vehicle: Klucel (hydroxypropylcellulose) (HPC))?
The T/C was 100 % of control.

And the T/C (dose: 10.0 mg/kg/injection, schedule: Q01DX009 (ip), vehicle: Klucel (hydroxypropylcellulose) (HPC))?
The T/C was 170 % of control.

What does the source list for COc1cc2c(cc1OC)C(=O)Nc1nc(N)nc(N)c1C2?
T/C (dose: 100.0 mg/kg/injection, schedule: Q01DX001 (ip), vehicle: saline with Tween-80): 108 % of control; T/C (dose: 200.0 mg/kg/injection, schedule: Q01DX001 (ip), vehicle: saline with Tween-80): 119 % of control

What does the source list for Cc1ccc(S(=O)(=O)OC2C(OCc3ccccc3)OCC(O)C2O)cc1 (stereo not drawn)?
T/C [6]: 102 % of control; T/C [7]: 100 % of control; T/C [8]: 100 % of control

Which results are given for CC(=O)C1=C(O)/C(=C\C=C\c2ccccc2)OC1=O?
T/C (dose: 50.0 mg/kg/injection, schedule: Q01DX009 (ip), vehicle: Klucel (hydroxypropylcellulose) (HPC)): 111 % of control; T/C (dose: 100.0 mg/kg/injection, schedule: Q01DX009 (ip), vehicle: Klucel (hydroxypropylcellulose) (HPC)): 104 % of control; T/C (dose: 200.0 mg/kg/injection, schedule: Q01DX009 (ip), vehicle: Klucel (hydroxypropylcellulose) (HPC)): 118 % of control

Which results are given for CC(C)(C)OC(=O)NC(Cc1c[nH]c2ccccc12)C(=O)ON1C(=O)CCC1=O (stereo not drawn)?
T/C (dose: 25.0 mg/kg/injection, schedule: Q01DX009 (ip), vehicle: saline with Tween-80): 97 % of control; T/C [11]: 108 % of control; T/C [9]: 110 % of control; T/C [10]: 105 % of control
